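All cell lines were grown in 96-well plates and treated with compound for 48 hours. Here, GI50 denotes the concentration required for 50% inhibition of growth. The concentration for full growth arrest is given as TGI.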
Tests used:
Assay in all cases: NCI anticancer screen, dose series, 48 h
SK-MEL-2 melanoma = tested on: SK-MEL-2 melanoma
NCI-H226 lung = tested on: NCI-H226 lung
ACHN renal = tested on: ACHN renal
SN12C renal = tested on: SN12C renal
TK-10 renal = tested on: TK-10 renal
SW-620 colon = tested on: SW-620 colon
NCI-H23 lung = tested on: NCI-H23 lung
SF-539 CNS = tested on: SF-539 CNS
T-47D breast = tested on: T-47D breast
COLO 205 colon = tested on: COLO 205 colon
NCI/ADR-RES ovarian = tested on: NCI/ADR-RES ovarian
LOX IMVI melanoma = tested on: LOX IMVI melanoma
MALME-3M melanoma = tested on: MALME-3M melanoma
HCT-116 colon = tested on: HCT-116 colon
RXF 393 renal = tested on: RXF 393 renal
CCRF-CEM leukemia = tested on: CCRF-CEM leukemia
SR leukemia = tested on: SR leukemia
SK-OV-3 ovarian = tested on: SK-OV-3 ovarian
UO-31 renal = tested on: UO-31 renal
EKVX NSCLC = tested on: EKVX NSCLC
OVCAR-3 ovarian = tested on: OVCAR-3 ovarian
SNB-19 CNS = tested on: SNB-19 CNS
IGROV1 ovarian = tested on: IGROV1 ovarian
RPMI-8226 leukemia = tested on: RPMI-8226 leukemia
KM12 colon = tested on: KM12 colon
DU-145 prostate = tested on: DU-145 prostate
786-0 renal = tested on: 786-0 renal
A549 NSCLC = tested on: A549 NSCLC
HS 578T breast = tested on: HS 578T breast
MDA-MB-435 = tested on: MDA-MB-435
K-562 leukemia = tested on: K-562 leukemia
BT-549 breast = tested on: BT-549 breast
SNB-75 CNS = tested on: SNB-75 CNS
MDA-MB-231 breast = tested on: MDA-MB-231 breast
A498 renal = tested on: A498 renal
SK-MEL-5 melanoma = tested on: SK-MEL-5 melanoma
U251 CNS = tested on: U251 CNS
PC-3 prostate = tested on: PC-3 prostate
SF-295 CNS = tested on: SF-295 CNS
HCC-2998 colon = tested on: HCC-2998 colon
SK-MEL-28 melanoma = tested on: SK-MEL-28 melanoma
HOP-92 NSCLC = tested on: HOP-92 NSCLC
UACC-62 melanoma = tested on: UACC-62 melanoma
NCI-H460 lung = tested on: NCI-H460 lung
CAKI-1 renal = tested on: CAKI-1 renal
UACC-257 melanoma = tested on: UACC-257 melanoma
MCF7 breast = tested on: MCF7 breast
OVCAR-8 ovarian = tested on: OVCAR-8 ovarian
NCI-H522 lung = tested on: NCI-H522 lung
SF-268 CNS = tested on: SF-268 CNS
HOP-62 NSCLC = tested on: HOP-62 NSCLC
HT29 colon = tested on: HT29 colon
MOLT-4 leukemia = tested on: MOLT-4 leukemia
M14 melanoma = tested on: M14 melanoma
OVCAR-5 ovarian = tested on: OVCAR-5 ovarian
HL-60(TB) leukemia = tested on: HL-60(TB) leukemia
HCT-15 colon = tested on: HCT-15 colon
OVCAR-4 ovarian = tested on: OVCAR-4 ovarian

In the case of `CNc1ncc(-c2nnnn2-c2ccccc2)c(CN(C)C)n1`, the TGI (SK-MEL-2 melanoma) is reported as greater than 100 µM, the TGI (NCI-H226 lung) is reported as greater than 100 µM and the TGI (ACHN renal) is reported as greater than 100 µM. The TGI (SN12C renal) was greater than 100 µM, the TGI (TK-10 renal) was greater than 100 µM and the TGI (SW-620 colon) was greater than 100 µM. For the same molecule, the TGI (NCI-H23 lung) was greater than 100 µM, the TGI (SF-539 CNS) was greater than 100 µM and the TGI (T-47D breast) was greater than 100 µM. For the same molecule, the TGI (COLO 205 colon) was greater than 100 µM, the TGI (NCI/ADR-RES ovarian) was greater than 100 µM and the TGI (LOX IMVI melanoma) was greater than 100 µM. The TGI (MALME-3M melanoma) was greater than 100 µM, the TGI (HCT-116 colon) was greater than 100 µM and the TGI (RXF 393 renal) was greater than 100 µM. The TGI (CCRF-CEM leukemia) was greater than 100 µM, the TGI (SR leukemia) was greater than 100 µM and the TGI (SK-OV-3 ovarian) was greater than 100 µM. The TGI (UO-31 renal) was greater than 100 µM, the TGI (EKVX NSCLC) was greater than 100 µM and the TGI (OVCAR-3 ovarian) was greater than 100 µM. The TGI (SNB-19 CNS) was greater than 100 µM, the TGI (IGROV1 ovarian) was greater than 100 µM and the TGI (RPMI-8226 leukemia) was greater than 100 µM. It also gave a TGI (KM12 colon) greater than 100 µM, a TGI (DU-145 prostate) greater than 100 µM and a TGI (786-0 renal) greater than 100 µM. The TGI (A549 NSCLC) was greater than 100 µM, the TGI (HS 578T breast) was greater than 100 µM and the TGI (MDA-MB-435) was greater than 100 µM. For the same molecule, the TGI (K-562 leukemia) was greater than 100 µM, the TGI (BT-549 breast) was greater than 100 µM and the TGI (SNB-75 CNS) was greater than 100 µM. The TGI (MDA-MB-231 breast) was greater than 100 µM, the TGI (A498 renal) was greater than 100 µM and the TGI (SK-MEL-5 melanoma) was greater than 100 µM. It also gave a TGI (U251 CNS) greater than 100 µM, a TGI (PC-3 prostate) greater than 100 µM and a TGI (SF-295 CNS) greater than 100 µM. For the same molecule, the TGI (HCC-2998 colon) was greater than 100 µM, the TGI (SK-MEL-28 melanoma) was greater than 100 µM and the TGI (HOP-92 NSCLC) was greater than 100 µM. It also gave a TGI (UACC-62 melanoma) greater than 100 µM, a TGI (NCI-H460 lung) greater than 100 µM and a TGI (CAKI-1 renal) greater than 100 µM. The TGI (UACC-257 melanoma) was greater than 100 µM, the TGI (MCF7 breast) was greater than 100 µM and the TGI (OVCAR-8 ovarian) was greater than 100 µM. For the same molecule, the TGI (NCI-H522 lung) was greater than 100 µM, the TGI (SF-268 CNS) was greater than 100 µM and the TGI (HOP-62 NSCLC) was greater than 100 µM. The TGI (HT29 colon) was greater than 100 µM, the TGI (MOLT-4 leukemia) was greater than 100 µM and the TGI (M14 melanoma) was greater than 100 µM. It also gave a TGI (OVCAR-5 ovarian) greater than 100 µM, a TGI (HL-60(TB) leukemia) greater than 100 µM and a TGI (HCT-15 colon) greater than 100 µM.

`COc1cc(-c2nn(-c3cccc(NC(=O)c4ccc(Cl)c(C(F)(F)F)c4)c3)cc2-c2ccncc2)ccc1Cl` showed a GI50 (SK-MEL-2 melanoma) of 1.42 µM, a TGI (SK-MEL-2 melanoma) of 10.1 µM and a GI50 (NCI-H226 lung) of 7.83 µM. For the same molecule, the TGI (NCI-H226 lung) was greater than 32.5 µM, the GI50 (ACHN renal) was 1.91 µM and the TGI (ACHN renal) was greater than 32.5 µM. For the same molecule, the GI50 (SN12C renal) was 7.15 µM, the TGI (SN12C renal) was greater than 32.5 µM and the GI50 (OVCAR-4 ovarian) was 6.26 µM. The TGI (OVCAR-4 ovarian) was greater than 32.5 µM, the GI50 (TK-10 renal) was 12.9 µM and the TGI (TK-10 renal) was greater than 32.5 µM. The GI50 (SW-620 colon) was 2.87 µM, the TGI (SW-620 colon) was greater than 32.5 µM and the GI50 (NCI-H23 lung) was 3.14 µM. The TGI (NCI-H23 lung) was greater than 32.5 µM, the GI50 (SF-539 CNS) was 2.63 µM and the TGI (SF-539 CNS) was 15 µM. It also gave a GI50 (T-47D breast) of 1.3 µM, a TGI (T-47D breast) greater than 32.5 µM and a GI50 (COLO 205 colon) of 3.5 µM. It also gave a TGI (COLO 205 colon) of 17.6 µM, a GI50 (NCI/ADR-RES ovarian) of 1.18 µM and a TGI (NCI/ADR-RES ovarian) of 15 µM. The GI50 (LOX IMVI melanoma) was 1.92 µM, the TGI (LOX IMVI melanoma) was greater than 32.5 µM and the GI50 (MALME-3M melanoma) was 0.922 µM. For the same molecule, the TGI (MALME-3M melanoma) was 6.68 µM, the GI50 (HCT-116 colon) was 2.04 µM and the TGI (HCT-116 colon) was greater than 32.5 µM. The GI50 (RXF 393 renal) was 2.01 µM, the TGI (RXF 393 renal) was greater than 24.6 µM and the GI50 (CCRF-CEM leukemia) was 1.77 µM. For the same molecule, the TGI (CCRF-CEM leukemia) was greater than 32.5 µM, the GI50 (SR leukemia) was 0.809 µM and the TGI (SR leukemia) was greater than 10.2 µM. The GI50 (SK-OV-3 ovarian) was 7.53 µM, the TGI (SK-OV-3 ovarian) was greater than 32.5 µM and the GI50 (UO-31 renal) was 0.551 µM. The TGI (UO-31 renal) was greater than 32.5 µM, the GI50 (OVCAR-3 ovarian) was 1.43 µM and the TGI (OVCAR-3 ovarian) was 15.2 µM. The GI50 (SNB-19 CNS) was 7.64 µM, the TGI (SNB-19 CNS) was greater than 32.5 µM and the GI50 (IGROV1 ovarian) was 1.78 µM. For the same molecule, the TGI (IGROV1 ovarian) was greater than 32.5 µM, the GI50 (RPMI-8226 leukemia) was 1.08 µM and the TGI (RPMI-8226 leukemia) was greater than 21.8 µM. It also gave a GI50 (KM12 colon) of 1.6 µM, a TGI (KM12 colon) greater than 32.5 µM and a GI50 (DU-145 prostate) of 5.46 µM. The TGI (DU-145 prostate) was greater than 32.5 µM, the GI50 (786-0 renal) was 8.2 µM and the TGI (786-0 renal) was greater than 32.5 µM. It also gave a GI50 (A549 NSCLC) of 2.41 µM, a TGI (A549 NSCLC) greater than 32.5 µM and a GI50 (HS 578T breast) of 1.78 µM. For the same molecule, the TGI (HS 578T breast) was greater than 29.5 µM, the GI50 (MDA-MB-435) was 0.658 µM and the TGI (MDA-MB-435) was 1.79 µM. It also gave a GI50 (K-562 leukemia) of 1.21 µM, a TGI (K-562 leukemia) greater than 32.5 µM and a GI50 (BT-549 breast) of 4.35 µM. For the same molecule, the TGI (BT-549 breast) was greater than 32.5 µM, the GI50 (SNB-75 CNS) was 1.07 µM and the TGI (SNB-75 CNS) was 13.2 µM. It also gave a GI50 (MDA-MB-231 breast) of 1.44 µM, a TGI (MDA-MB-231 breast) greater than 32.5 µM and a GI50 (A498 renal) of 1.02 µM. It also gave a TGI (A498 renal) of 7.01 µM, a GI50 (SK-MEL-5 melanoma) of 1.13 µM and a TGI (SK-MEL-5 melanoma) of 8.69 µM. The GI50 (U251 CNS) was 2.39 µM, the TGI (U251 CNS) was greater than 32.5 µM and the GI50 (PC-3 prostate) was 0.798 µM. For the same molecule, the TGI (PC-3 prostate) was greater than 16.3 µM, the GI50 (SF-295 CNS) was 1.08 µM and the TGI (SF-295 CNS) was 8.19 µM. The GI50 (HCC-2998 colon) was 9.89 µM, the TGI (HCC-2998 colon) was greater than 32.5 µM and the GI50 (SK-MEL-28 melanoma) was 3.09 µM. It also gave a TGI (SK-MEL-28 melanoma) greater than 32.5 µM, a GI50 (HOP-92 NSCLC) of 0.425 µM and a TGI (HOP-92 NSCLC) of 2.5 µM. It also gave a GI50 (UACC-62 melanoma) of 1.6 µM, a TGI (UACC-62 melanoma) greater than 32.5 µM and a GI50 (NCI-H460 lung) of 2.21 µM. For the same molecule, the TGI (NCI-H460 lung) was greater than 32.5 µM, the GI50 (CAKI-1 renal) was 2.34 µM and the TGI (CAKI-1 renal) was greater than 32.5 µM. For the same molecule, the GI50 (UACC-257 melanoma) was 3.6 µM, the TGI (UACC-257 melanoma) was greater than 32.5 µM and the GI50 (MCF7 breast) was 1.82 µM. The TGI (MCF7 breast) was greater than 32.5 µM, the GI50 (OVCAR-8 ovarian) was 3.35 µM and the TGI (OVCAR-8 ovarian) was greater than 32.5 µM. The GI50 (NCI-H522 lung) was 0.794 µM, the TGI (NCI-H522 lung) was 5.52 µM and the GI50 (SF-268 CNS) was 3.24 µM. For the same molecule, the TGI (SF-268 CNS) was greater than 32.5 µM, the GI50 (HOP-62 NSCLC) was 6.5 µM and the TGI (HOP-62 NSCLC) was greater than 32.5 µM. For the same molecule, the GI50 (HT29 colon) was 3.33 µM, the TGI (HT29 colon) was greater than 26.1 µM and the GI50 (MOLT-4 leukemia) was 5.24 µM. For the same molecule, the TGI (MOLT-4 leukemia) was greater than 32.5 µM, the GI50 (M14 melanoma) was 2.31 µM and the TGI (M14 melanoma) was greater than 32.5 µM. It also gave a GI50 (OVCAR-5 ovarian) greater than 28.4 µM, a TGI (OVCAR-5 ovarian) greater than 32.5 µM and a GI50 (HL-60(TB) leukemia) of 2.56 µM. The TGI (HL-60(TB) leukemia) was greater than 32.5 µM, the GI50 (HCT-15 colon) was 3.15 µM and the TGI (HCT-15 colon) was greater than 32.5 µM.
